Test results taken from patent publication US9730446B2, “Herbicidal compositions comprising 4-amino-3-chloro-6-(4-chloro-2-fluoro-3-methoxyphenyl)pyridine-2-carboxylic acid or a derivative thereof and propyzamide” (Dow AgroSciences LLC, priority 2013, dated 2017).

Legend:
Test in all cases: Field trial, visual weed control in winter oilseed rape
Format in all cases: in vivo
[1] = tested on: GERSS Geranium sp. (cranesbill)
Method: (§1) Multiple small plot research experiments were conducted to evaluate efficacy and tolerance of winter oilseed rape to compositions described herein. Typical small plots (2-4×4-10 meters (m)) were used in growers' fields under natural conditions with normal commercial cultural practices. Backpack sprayers were used to apply all treatments based on unit area. The methyl ester of formula (I) and propyzamide were tested alone and in combination at varying rates. […] Crop stage was at Growth Stage 39-50. Visual crop injury ratings were collected 32, 49, and 74 days after treatment. […] The reported values are means. […] The following abbreviations are used in Tables 2-4: • GERSS Geranium sp. (cranesbill) • POAAN Poa annua (annual bluegrass) • VERSS Veronica sp.

[2] = tested on: POAAN Poa annua (annual bluegrass)
Method: as §1

[3] = tested on: VERSS Veronica sp. (speedwell)
Method: as §1

How did the “% control rated visually, ob (observed)” value ([1]; Cmpd I 1.25 g ae/ha, 32 DAAA) turn out when `COC(=O)c1nc(-c2ccc(Cl)c(OC)c2F)cc(N)c1Cl` [Cmpd I, methyl ester of 4-amino-3-chloro-6-(4-chloro-2-fluoro-3-methoxyphenyl)pyridine-2-carboxylic acid] was run?
Its value is 42.5%.

And the “% control rated visually, ob (observed)” value ([1]; Cmpd I 1.25 g ae/ha, 58 DAAA)?
Its value is 62.5%.

And the “% control rated visually, ob (observed)” value ([1]; Cmpd I 1.25 g ae/ha, 80 DAAA)?
Its value is 53.8%.

What about the “% control rated visually, ob (observed)” value ([1]; Cmpd I 2.5 g ae/ha, 32 DAAA) of the same compound?
The value was 42.5%.

And the “% control rated visually, ob (observed)” value ([1]; Cmpd I 2.5 g ae/ha, 58 DAAA)?
The value was 57.5%.

And the “% control rated visually, ob (observed)” value ([1]; Cmpd I 2.5 g ae/ha, 80 DAAA)?
Its value is 67.5%.

What about the “% control rated visually, ob (observed)” value ([1]; Cmpd I 5 g ae/ha, 32 DAAA) of the same compound?
Its value is 89.3%.

What about the “% control rated visually, ob (observed)” value ([1]; Cmpd I 5 g ae/ha, 58 DAAA) of the same compound?
The value was 77.5%.

And the “% control rated visually, ob (observed)” value ([1]; Cmpd I 5 g ae/ha, 80 DAAA)?
The value was 69.5%.

What about the “% control rated visually, ob (observed)” value ([1]; Cmpd I 7.5 g ae/ha, 32 DAAA) of the same compound?
Its value is 91.3%.

What about the “% control rated visually, ob (observed)” value ([1]; Cmpd I 7.5 g ae/ha, 58 DAAA) of the same compound?
The value was 91.3%.

What about the “% control rated visually, ob (observed)” value ([1]; Cmpd I 7.5 g ae/ha, 80 DAAA) of the same compound?
The value was 99.8%.

And the “% control rated visually, ob (observed)” value ([2]; Cmpd I 1.25 g ae/ha, 32 DAAA)?
The value was 7.5%.

And the “% control rated visually, ob (observed)” value ([2]; Cmpd I 1.25 g ae/ha, 58 DAAA)?
The value was 11.3%.

And the “% control rated visually, ob (observed)” value ([2]; Cmpd I 1.25 g ae/ha, 80 DAAA)?
The value was 16.3%.

And the “% control rated visually, ob (observed)” value ([2]; Cmpd I 2.5 g ae/ha, 32 DAAA)?
The value was 10.0%.

What about the “% control rated visually, ob (observed)” value ([2]; Cmpd I 2.5 g ae/ha, 58 DAAA) of the same compound?
The value was 15.0%.

What about the “% control rated visually, ob (observed)” value ([2]; Cmpd I 2.5 g ae/ha, 80 DAAA) of the same compound?
The value was 15.0%.

And the “% control rated visually, ob (observed)” value ([2]; Cmpd I 5 g ae/ha, 32 DAAA)?
The value was 6.3%.

And the “% control rated visually, ob (observed)” value ([2]; Cmpd I 5 g ae/ha, 58 DAAA)?
Its value is 12.5%.

What about the “% control rated visually, ob (observed)” value ([2]; Cmpd I 5 g ae/ha, 80 DAAA) of the same compound?
The value was 6.3%.

And the “% control rated visually, ob (observed)” value ([2]; Cmpd I 7.5 g ae/ha, 32 DAAA)?
Its value is 28.8%.

What about the “% control rated visually, ob (observed)” value ([2]; Cmpd I 7.5 g ae/ha, 58 DAAA) of the same compound?
The value was 28.8%.

What about the “% control rated visually, ob (observed)” value ([2]; Cmpd I 7.5 g ae/ha, 80 DAAA) of the same compound?
The value was 18.8%.

What about the “% control rated visually, ob (observed)” value ([3]; Cmpd I 1.25 g ae/ha, 32 DAAA) of the same compound?
Its value is 10.0%.

What about the “% control rated visually, ob (observed)” value ([3]; Cmpd I 1.25 g ae/ha, 80 DAAA) of the same compound?
Its value is 80.0%.

And the “% control rated visually, ob (observed)” value ([3]; Cmpd I 2.5 g ae/ha, 32 DAAA)?
Its value is 26.3%.

And the “% control rated visually, ob (observed)” value ([3]; Cmpd I 2.5 g ae/ha, 80 DAAA)?
The value was 97.5%.

What about the “% control rated visually, ob (observed)” value ([3]; Cmpd I 5 g ae/ha, 32 DAAA) of the same compound?
The value was 45.0%.

And the “% control rated visually, ob (observed)” value ([3]; Cmpd I 5 g ae/ha, 80 DAAA)?
Its value is 100.0%.

And the “% control rated visually, ob (observed)” value ([3]; Cmpd I 7.5 g ae/ha, 32 DAAA)?
Its value is 81.3%.

What about the “% control rated visually, ob (observed)” value ([3]; Cmpd I 7.5 g ae/ha, 80 DAAA) of the same compound?
Its value is 100.0%.
